Among the test systems are MDA-MB-231 breast; HS 578T breast; NCI-H460 lung; KM12 colon; SK-MEL-28 melanoma; IGROV1 ovarian; NCI-H226 lung; A549 NSCLC; SK-MEL-2 melanoma; NCI/ADR-RES ovarian.
Common to all, as to test: NCI tumour cell line growth inhibition, 48 h

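Compound exposure: 48 hours, 5 concentrations, 96-well plates. Here, GI50 denotes the concentration required for 50% inhibition of growth. At the TGI there is no net growth.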

As for `O=C(C#Cc1ccccc1)N1CCCCC1`, the TGI in the assay on MDA-MB-231 breast, in the assay with HS 578T breast, with NCI-H460 lung, with KM12 colon, in the assay with SK-MEL-28 melanoma and in the assay with IGROV1 ovarian was > 100 µM in each case. The TGI with NCI-H226 lung, in the assay with A549 NSCLC and with SK-MEL-2 melanoma was > 100 µM in each case.

On to `O=C(Nc1c(Cl)cccc1Cl)Oc1cccc2cccnc12`, for which the GI50 was 4.24 µM with MDA-MB-231 breast; 2.73 µM in the assay with NCI/ADR-RES ovarian; 10.9 µM with HS 578T breast; 3.46 µM with NCI-H460 lung; 4.69 µM in the assay on KM12 colon; 7.28 µM in the assay with SK-MEL-28 melanoma. Further, the results for the GI50 in the assay with IGROV1 ovarian, in the assay on NCI-H226 lung and in the assay with A549 NSCLC were 3.68 µM, 4.57 µM and 4.47 µM, respectively. The TGI in the assay on MDA-MB-231 breast came out at 25.3 µM; with NCI/ADR-RES ovarian it was 27.9 µM; in the assay with HS 578T breast it was 66.1 µM; in the assay on NCI-H460 lung, 20.2 µM; in the assay with KM12 colon, 70.4 µM; in the assay with SK-MEL-28 melanoma, 75.2 µM. Moreover, the TGI with IGROV1 ovarian was > 100 µM; in the assay with NCI-H226 lung it was 21.7 µM; in the assay with A549 NSCLC, 40.2 µM.

For `Oc1ccc(Cl)cc1N=Nc1c(O)ccc2ccccc12`, the TGI in the assay on MDA-MB-231 breast, in the assay on NCI/ADR-RES ovarian, in the assay with HS 578T breast, in the assay on KM12 colon, in the assay on SK-MEL-28 melanoma and in the assay with IGROV1 ovarian was > 100 µM in each case. Further, the TGI in the assay on NCI-H226 lung, in the assay with A549 NSCLC and in the assay on SK-MEL-2 melanoma was > 100 µM throughout.

Regarding `COC1C[C@H](O[C@@H]2C[C@H](O[C@@H]3C[C@H](O[C@@H]4C(=O)c5c(cc6cc(O[C@H]7C[C@@H](O[C@H]8C[C@@H](O)[C@H](O)C(C)O8)[C@H](O)C(C)O7)c(C)c(O)c6c5O)C[C@H]4C(OC)C(=O)[C@@H](O)[C@@H](C)O)OC(C)[C@H]3O)OC(C)[C@@H]2O)OC(C)[C@@H]1O` (stereo not given in full), the GI50 with NCI/ADR-RES ovarian was > 32.5 µM; in the assay with HS 578T breast, 0.0743 µM; in the assay with NCI-H460 lung, 0.0802 µM; in the assay on A549 NSCLC, 0.185 µM; in the assay on SK-MEL-2 melanoma, 0.068 µM. Besides, the TGI in the assay on NCI/ADR-RES ovarian was > 32.5 µM; in the assay on HS 578T breast, 4.96 µM; in the assay on NCI-H460 lung, > 32.5 µM; in the assay on A549 NSCLC it was > 32.5 µM; in the assay with SK-MEL-2 melanoma, 0.165 µM.

With `COc1cc(OC)c(OC)cc1/C=C/c1ccc2ccccc2n1`, the TGI in the assay on MDA-MB-231 breast, in the assay with NCI/ADR-RES ovarian, in the assay on HS 578T breast, with KM12 colon, in the assay on SK-MEL-28 melanoma and in the assay with IGROV1 ovarian was > 10 µM in each case. Moreover, in the assay with A549 NSCLC, the TGI was > 10 µM.

On to `O=C(Nc1cccc(Cl)c1)Nc1cc(C(F)(F)F)ccc1Cl`, for which the GI50 in the assay with MDA-MB-231 breast is 1.97 µM; with NCI/ADR-RES ovarian, 2.64 µM; with HS 578T breast, 2.63 µM; in the assay with NCI-H460 lung, 2.54 µM; with KM12 colon, 2.65 µM; with SK-MEL-28 melanoma, 4.19 µM. Besides, the results for the GI50 in the assay with NCI-H226 lung, in the assay on A549 NSCLC and with SK-MEL-2 melanoma were 3.25 µM, 2.72 µM and 2.24 µM, respectively. In addition, the TGI was 4.23 µM in the assay with MDA-MB-231 breast; 7.12 µM with NCI/ADR-RES ovarian; 8.39 µM with HS 578T breast; 6.84 µM in the assay with NCI-H460 lung; 6.98 µM with KM12 colon; 29.6 µM in the assay on SK-MEL-28 melanoma. Besides, the TGI in the assay on NCI-H226 lung worked out at 10.5 µM; in the assay with A549 NSCLC it was 8.98 µM; in the assay with SK-MEL-2 melanoma, 5.4 µM.

Turning to `[N-]=[N+]=NCCCn1c2c(c3ccccc3c1=O)C(=O)c1cc3c(cc1-2)OCO3`, the GI50 is > 100 µM in the assay on MDA-MB-231 breast; 90.9 µM in the assay on NCI/ADR-RES ovarian; > 100 µM in the assay with HS 578T breast; 8.25 µM with NCI-H460 lung; > 100 µM with KM12 colon; 47.3 µM in the assay on IGROV1 ovarian. In addition, the GI50 with NCI-H226 lung, with A549 NSCLC and in the assay on SK-MEL-2 melanoma was > 100 µM throughout. Also, the TGI in the assay with MDA-MB-231 breast, with NCI/ADR-RES ovarian, in the assay with HS 578T breast, with NCI-H460 lung, with KM12 colon and in the assay with IGROV1 ovarian was > 100 µM throughout. Further, the TGI with NCI-H226 lung, with A549 NSCLC and in the assay with SK-MEL-2 melanoma was > 100 µM each time.

On to `Clc1cc2ns[s+]c2cc1Cl`, for which the TGI in the assay with NCI-H460 lung, in the assay with KM12 colon, in the assay on SK-MEL-28 melanoma, in the assay on IGROV1 ovarian, in the assay with NCI-H226 lung and with A549 NSCLC was > 100 µM each time. The TGI in the assay with SK-MEL-2 melanoma was > 100 µM.

In the case of `NC1=NN(c2ccccc2)C(=O)C1/C(=N\NC(=O)c1cc2ccccc2cc1O)C(=O)Nc1ccc(Cl)c(Cl)c1` (stereo not given), the TGI in the assay with NCI-H460 lung was 85.5 µM; with KM12 colon, > 100 µM; in the assay on SK-MEL-28 melanoma it was > 100 µM; in the assay with IGROV1 ovarian, > 100 µM; in the assay on NCI-H226 lung, > 100 µM; with A549 NSCLC it was > 100 µM. Also, the TGI with SK-MEL-2 melanoma was > 100 µM.

As to `c1ccc2cc(Cn3c(-c4cccc5ccccc45)[n+](Cc4ccc5ccccc5c4)c4c5ccccc5c5ccccc5c43)ccc2c1`, the GI50 in the assay with NCI/ADR-RES ovarian was 1.77 µM; in the assay on HS 578T breast it was 0.383 µM; in the assay with NCI-H460 lung, 0.254 µM; with KM12 colon, 0.285 µM. The TGI in the assay with NCI/ADR-RES ovarian amounted to 4.71 µM; with HS 578T breast, 2.45 µM; in the assay with NCI-H460 lung, 1.41 µM; in the assay with KM12 colon it was 1.2 µM.

Consider `CN(N=O)N1C(=O)SCC(c2ccccc2)(c2ccccc2)C1=O`, for which the TGI with MDA-MB-231 breast, in the assay on NCI/ADR-RES ovarian, with HS 578T breast, in the assay on NCI-H460 lung, in the assay on KM12 colon and in the assay on SK-MEL-28 melanoma was > 100 µM in each case. Besides, the TGI is 52.7 µM in the assay on NCI-H226 lung, > 100 µM with A549 NSCLC and 54.5 µM in the assay on SK-MEL-2 melanoma.
